Experimental data: ChEMBL document CHEMBL4321867, “Optimization of LpxC Inhibitor Lead Compounds Focusing on Efficacy and Formulation for High Dose Intravenous Administration” (J Med Chem, 2020)
Converted amounts (≈) assume the structure as drawn.

Experiments:
Citrobacter freundii = experiment: microbe, parasite or virus in culture
Klebsiella aerogenes = experiment: microbe, parasite or virus in culture
Enterobacter cloacae = experiment: microbe, parasite or virus in culture
Escherichia coli [1] = experiment: microbe, parasite or virus in culture
Klebsiella oxytoca = experiment: microbe, parasite or virus in culture
Klebsiella pneumoniae [2] = experiment: microbe, parasite or virus in culture
Morganella morganii = experiment: microbe, parasite or virus in culture
Proteus mirabilis = experiment: microbe, parasite or virus in culture
Serratia marcescens = experiment: microbe, parasite or virus in culture
Acinetobacter baumannii = experiment: microbe, parasite or virus in culture
Burkholderia cepacia = experiment: microbe, parasite or virus in culture
Haemophilus influenzae = experiment: microbe, parasite or virus in culture
Moraxella catarrhalis = experiment: microbe, parasite or virus in culture
Pseudomonas aeruginosa [3] = experiment: microbe, parasite or virus in culture
[4] = tested on: Stenotrophomonas maltophilia; experiment: microbe, parasite or virus in culture
in vivo [5] = conditions: mouse, sc, 50 mg/kg
in vivo [6] = conditions: Wistar, rat, iv, 10 mg/kg
physchem [7] = conditions: buffer, pH 4
physchem [8] = conditions: buffer, pH 7
physchem [9] = conditions: buffer, pH 9
in vitro [10] = conditions: rat, hepatocytes
in vitro [11] = conditions: rat, liver microsomes
in vitro [12] = conditions: human, hepatocytes
in vitro [13] = conditions: human, liver microsomes
in vitro [14] = conditions: rat, plasma
Escherichia coli [15] = experiment: microbe, parasite or virus in culture; conditions: ATCC 25922
Klebsiella pneumoniae [16] = experiment: microbe, parasite or virus in culture; conditions: T6474
Pseudomonas aeruginosa [17] = experiment: microbe, parasite or virus in culture; conditions: ATCC 27853
[18] = tested on: T1, UDP-3-O-acyl-N-acetylglucosamine deacetylase (Escherichia coli K-12), P0A725 [C125S]; conditions: 25 uM
T1 sequence (whole entry): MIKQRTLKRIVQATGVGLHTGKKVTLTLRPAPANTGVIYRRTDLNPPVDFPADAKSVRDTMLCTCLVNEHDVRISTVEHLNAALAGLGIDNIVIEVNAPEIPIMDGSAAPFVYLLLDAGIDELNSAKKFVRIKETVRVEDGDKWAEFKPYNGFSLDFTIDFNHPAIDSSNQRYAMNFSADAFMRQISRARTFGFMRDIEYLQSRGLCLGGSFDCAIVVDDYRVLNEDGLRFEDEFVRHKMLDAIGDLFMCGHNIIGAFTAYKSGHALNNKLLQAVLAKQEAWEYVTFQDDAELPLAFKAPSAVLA

[19] = tested on: T2, UDP-3-O-acyl-N-acetylglucosamine deacetylase (Pseudomonas aeruginosa (strain ATCC 15692 / PAO1 / 1C / PRS 101 / LMG12228)), P47205 [C40S]; conditions: 25 uM
T2 sequence (whole entry): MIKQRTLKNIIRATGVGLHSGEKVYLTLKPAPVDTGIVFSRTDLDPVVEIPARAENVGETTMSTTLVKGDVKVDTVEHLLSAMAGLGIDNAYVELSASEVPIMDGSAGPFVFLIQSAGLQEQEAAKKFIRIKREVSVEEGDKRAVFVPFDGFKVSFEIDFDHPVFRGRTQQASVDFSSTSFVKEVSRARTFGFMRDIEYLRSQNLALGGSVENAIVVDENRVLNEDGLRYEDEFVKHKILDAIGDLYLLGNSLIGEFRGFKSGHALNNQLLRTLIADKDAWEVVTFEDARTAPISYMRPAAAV

in vivo [20] = conditions: mouse, sc, 150 mg/kg
physchem [21] = conditions: n-octanol/phosphate buffer, pH 7.4
physchem [22] = experiment: physchem

Structure (SMILES) | MIC90 (Citrobacter freundii) [µg/mL] | MIC90 (Klebsiella aerogenes) [µg/mL] | MIC90 (Escherichia coli [1]) [µg/mL] | MIC90 (Klebsiella oxytoca) [µg/mL] | MIC90 (Klebsiella pneumoniae [2]) [µg/mL] | MIC90 (Morganella morganii) [µg/mL] | MIC90 (Proteus mirabilis) [µg/mL] | MIC90 (Serratia marcescens) [µg/mL] | MIC90 (Acinetobacter baumannii) [µg/mL] | MIC90 (Burkholderia cepacia) [µg/mL] | MIC90 (Haemophilus influenzae) [µg/mL] | MIC90 (Moraxella catarrhalis) [µg/mL] | MIC90 (Pseudomonas aeruginosa [3]) [µg/mL] | MIC90 [4] [µg/mL] | clearance at 24 h (in vivo [6]) [mL/min/kg] | hepatocyte CLint at 1 µM (in vitro [10]) [µL/min/1e6 cells] | microsomal CLint at 1 µM (in vitro [11]) [µL/min/mg] | hepatocyte CLint at 1 µM (in vitro [12]) [µL/min/1e6 cells] | microsomal CLint at 1 µM (in vitro [13]) [µL/min/mg] | fraction unbound at 1 µM (in vitro [14]) | also measured
CN(C)c1cc(NC(=O)CNC(C)(C)C)c(O)c2c1C[C@H]1C[C@H]3[C@H](N(C)C)C(O)=C(C(N)=O)C(=O)[C@@]3(O)C(O)=C1C2=O [TIGECYCLINE] | 1 (≈ 1.71 µM) | 1 (≈ 1.71 µM) | 1 (≈ 1.71 µM) | 0.5 (≈ 0.854 µM) | 4 (≈ 6.83 µM) | 8 (≈ 13.7 µM) | 4 (≈ 6.83 µM) | 2 (≈ 3.41 µM) | 16 (≈ 27.3 µM) | > 16 | 0.25 (≈ 0.427 µM) | 0.5 (≈ 0.854 µM) | > 16 | 4 (≈ 6.83 µM) |  |  |  |  |  |  | MIC90 (Enterobacter cloacae): 4 µg/mL (≈ 6.83 µM)
C[C@@](CCN1Cc2cc(C#CC#C[C@H]3C[C@@H]3CO)cn2C1=O)(C(=O)NO)S(C)(=O)=O |  |  |  |  |  |  |  |  |  |  |  |  |  |  | 17 | 19 | < 10 | 3.2 | < 10 | 0.008 | AUC(0-t) at 24 h (in vivo [5]): 124000 ng·h/mL; solubility at 24 h (physchem [7]): 600 µg/mL (≈ 1380 µM); solubility at 24 h (physchem [8]): 588 µg/mL (≈ 1360 µM); solubility at 24 h (physchem [9]): 628 µg/mL (≈ 1450 µM); MIC (Escherichia coli [15]): 0.12 µg/mL (≈ 0.277 µM); MIC (Klebsiella pneumoniae [16]): 0.25 µg/mL (≈ 0.577 µM); MIC (Pseudomonas aeruginosa [17]): 0.25 µg/mL (≈ 0.577 µM)
C[C@@](CCN1Cc2cc(C#CC#CC3(N)CC3)cn2C1=O)(C(=O)NO)S(C)(=O)=O |  |  |  |  |  |  |  |  |  |  |  |  |  |  | 29 | 17 | 14 | < 2 | < 10 | 0.111 | deltaTm [18]: 10 K; deltaTm [19]: 11.6 K; AUC(0-t) at 24 h (in vivo [20]): 44700 ng·h/mL; logD (physchem [21]): 0.7; pKa (physchem [22]): 6.5; MIC (Escherichia coli [15]): 0.25 µg/mL (≈ 0.597 µM); MIC (Klebsiella pneumoniae [16]): 0.25 µg/mL (≈ 0.597 µM); MIC (Pseudomonas aeruginosa [17]): 0.5 µg/mL (≈ 1.19 µM)
O=C(O)c1cn(C2CC2)c2cc(N3CCNCC3)c(F)cc2c1=O [CIPROFLOXACIN] | 0.125 (≈ 0.377 µM) | 0.03 (≈ 0.0905 µM) | > 8 | ≤ 0.016 | > 8 | ≤ 0.016 | 0.125 (≈ 0.377 µM) | 0.25 (≈ 0.754 µM) | > 8 | 8 (≈ 24.1 µM) | ≤ 0.016 | 1 (≈ 3.02 µM) | > 8 | 8 (≈ 24.1 µM) |  |  |  |  |  |  | 
